Test results as given in article PMC11357992, “Non-invasive mapping of systemic neutrophil dynamics upon cardiovascular injury” (Nature Cardiovascular Research, 2023).
Several values for one entry are separate records, joined by “and”; a condition that tells them apart may be missing. Identical values can stand only once. Where no end group is shown, it is not given here. Side-chain parts run from the residue outwards. rhodamine‑labelled PEGylated perfluoro‑15‑crown‑5 ether nanoemulsion = not defined here; carboxyfluorescein = N-terminal fluorescence label (CF)

Key:
[1] = system: neutrophils from explanted failing human hearts; test: hNPPFC uptake by neutrophils from explanted human hearts, flow cytometry; type: cell-based; conditions: 10 µl hNPPFCs, 30 min, 37 °C
Method: During orthotopic heart-transplant surgery in patients suffering from terminal heart failure, a tissue specimen of about ~5 g was excised from the apex of the failing heart immediately after explantation. Tissues were immediately transferred to iced BIOPS buffer as described previously. For subsequent isolation of immune cells, heart samples were cut into small pieces and digested with the Multi Tissue Dissociation Kit 2 (Miltenyi; ‘adult rat heart’ protocol) by incubating for 40 min at 37 °C with the specified enzyme mix using the 37C_Multi_G program by gentleMACS. Afterward, 7.5 ml DMEM with 20% FCS was added to stop enzymatic digestion. The sample was applied to a 70-µm cell filter and washed with 3 ml DMEM, followed by centrifugation for 5 min at 300g. The supernatant was discarded, and cells were resuspended in 1 ml DMEM and incubated with 10 µl ^hNPPFCs for 30 min at 37 °C on a vertical shaker. Afterward, cells were washed twice with MACS buffer and stained for CD45, CD11b and CD66b. DAPI staining was performed for exclusion of dead cells. The uptake of ^hNPPFCs into neutrophils (CD45^+CD11b^+CD66b^+) was determined by flow cytometry.

[2] = system: human neutrophils; test: 1H/19F MRI of human neutrophils incubated with hNPPFCs/ConPFCs (healthy and STEMI); type: cell-based; conditions: versus ConPFC controls
Method: After the incubation period, cells were subjected to density gradient centrifugation to separate PFC-loaded cells from free PFCs. Afterward, samples were analyzed by MRI to determine the ^19F signal within the cell layer as described previously.
To determine PFC uptake by human neutrophils by ^19F MRI, cells were isolated from 10 ml of whole blood by density centrifugation. Subsequently, neutrophils (5 × 10^6) were resuspended in 3 ml DMEM and incubated for up to 8 h at 37 °C under constant motion with 10 µl ^hNPPFCs. Afterward, cells were centrifuged at 350g, washed three times with PBS, resuspended in 1 ml MACS buffer, purified by Percoll gradient centrifugation and analyzed by ^1H/^19F MRI.

[3] = system: human neutrophils; test: Cell surface activation markers CD11b, CD63, CD66b on human neutrophils; type: cell-based; conditions: 50 µl ml^−1 hNPPFCs or 1 µg ml^−1 LPS, 1 h, 37 °C
Method: A total of 1 × 10^6 isolated human neutrophils were incubated with 50 µl ml^−1 ^hNPPFCs, 1 µg ml^−1 LPS or only DMEM for 1 h at 37 °C followed by intense washing with MACS buffer. Afterward, 1 × 10^5 cells were transferred into 96-well plates and stained for CD11b and CD63 (eBioscience, clone HSC6) or CD66b (eBioscience, clone G10F5) for 20 min at 4 °C. After two washing steps with MACS buffer, cells were analyzed by flow cytometry. A total of 1 × 10^5 isolated murine neutrophils were transferred into a 96-well plate and stained for CD11b, CD62L and CD63 for 20 min at 4 °C. After two washing steps with MACS buffer, cells were analyzed by flow cytometry.

[4] = system: circulating lymphocytes, monocytes and neutrophils; test: In vivo mNPPFC uptake by circulating immune cells 1 h after injection (Matrigel-LPS or PBS); set-up: species or system mouse; in vivo uptake by circulating lymphocytes, Ctrl, raw data / in vivo uptake by circulating lymphocytes, LPS, raw data / in vivo uptake by circulating monocytes, Ctrl, raw data / in vivo uptake by circulating monocytes, LPS, raw data / in vivo uptake by circulating neutrophils, Ctrl, raw data / in vivo uptake by circulating neutrophils, LPS, raw data: unit not given here
Method: (§1) To induce defined inflammatory foci, we adopted a recently developed model of localized subcutaneous inflammation. To this end, ice-cold Matrigel (Corning) was doped with LPS (1 µg µl^−1; Salmonella typhimurium, Sigma-Aldrich) and subcutaneously (s.c.) implanted into the neck of the mice. Twenty-four hours after implanting the plug, neutrophils were isolated from the blood and incubated ex vivo with ^mNPPFCs or ^ConPFCs. In separate experiments, 24 h after implantation, ^mNPPFCs or ^ConPFCs were injected intravenously, and immune cells were isolated from the blood. In further experiments, 1 d after plug injection, mice received 1 mmol per kg BW ^mNPPFCs, and, 24 h later, the bone marrow was analyzed by ^1H/^19F MRI. Thereafter, mice were killed, and neutrophils were isolated from the bone marrow for determination of cell numbers. In each case, immune cells were analyzed by flow cytometry.
Mice were kept in anesthesia (1.5% isoflurane) on a warming plate, and 1 mmol per kg BW ^mNPPFCs or ^ConPFCs were injected i.v. into the tail vein. One hour after injection, blood was collected from the vena cava, and immune cells were isolated. For in vivo uptake studies in the bone marrow, mice were treated as described above and killed 2 h later to isolate neutrophils from the bone marrow and analyzed by flow cytometry.

[5] = system: bone marrow neutrophils; test: In vivo mNPPFC labeling of bone marrow neutrophils after Matrigel-LPS, 1H/19F MRI; set-up: species or system mouse; conditions: individual experiments; for total amount of 19F in the bone marrow (1H/19F MRI): mNPPFCs 1 mmol per kg BW i.v. 24 h after implantation, MRI another 24 h later; for 19F signal normalized to the number of neutrophils in the bone marrow: neutrophil number by flow cytometry directly after MRI
Method: as §1
Slice packages were placed in sagittal orientation to cover the complete bone marrow in the tibia and femur in both legs using the following scan details: ^1H RARE, TR = 2,000 ms, FOV = 4.00 × 2.56 cm^2, matrix = 256 × 256, ST = 1 mm, tAcq = 1 min; ^19F RARE, TR = 2,500 ms, FOV = 4.00 × 2.56 cm^2, matrix = 64 × 64, ST = 3 mm, tAcq = 10 min.

[6] = mouse, Ctrl (PBS), 1 h after injection, single animals #1-#5
[7] = mouse, Matrigel-LPS, 1 h after injection, single animals #1-#3

Substance	labeling of neutrophils freshly isolated from explanted failing human hearts [1]	19F signal of human neutrophils exposed to PFCs (1H/19F MRI) [2]	expression of CD11b, CD63 and CD66b on human neutrophils [3]	incorporation into circulating neutrophils from LPS-challenged versus healthy mice ([4]; 1 h after intravenous application)	in vivo uptake by circulating lymphocytes, Ctrl, raw data [4, 6]	in vivo uptake by circulating monocytes, Ctrl, raw data [4, 6]	in vivo uptake by circulating neutrophils, Ctrl, raw data [4, 6]	in vivo uptake by circulating lymphocytes, LPS, raw data [4, 7]	in vivo uptake by circulating monocytes, LPS, raw data [4, 7]	in vivo uptake by circulating neutrophils, LPS, raw data [4, 7]	total amount of 19F in the bone marrow (1H/19F MRI) ([5]; Ctrl: Matrigel-PBS plug)	19F signal normalized to the number of neutrophils in the bone marrow ([5]; Ctrl: Matrigel-PBS plug)	total amount of 19F in the bone marrow (1H/19F MRI) ([5]; LPS: Matrigel-LPS plug)	19F signal normalized to the number of neutrophils in the bone marrow ([5]; LPS: Matrigel-LPS plug)
hNPPFCs: PEGylated rhodamine-labeled perfluorocarbon nanoemulsion coupled with human neutrophil-specific peptide hNP (carboxyfluorescein-DLVTSKLQVGGGC; also: C-terminal Cys coupled via maleimide-PEG2000-DSPE to rhodamine-labelled perfluorocarbon nanoemulsion)	could be labeled	significantly stronger	did not affect expression of these proteins	–	–	–	–	–	–	–	–	–	–	–
mNPPFCs: PEGylated rhodamine-labeled perfluoro-15-crown-5 ether nanoemulsion (maleimide PFCs) coupled with murine neutrophil-specific peptide mNP (carboxyfluorescein-DFYKPMPNLRITGGGC([maleimide‑PEG2000‑DSPE-rhodamine‑labelled PEGylated perfluoro‑15‑crown‑5 ether nanoemulsion]); reading uncertain; also: printed as DFYKPMPNLRIT-GGG-C)	–	–	–	much stronger	51.1 and 39.2 and 30.6 and 43.1 and 40.6	176 and 127 and 129 and 184 and 145	400 and 394 and 676 and 677 and 545	38.8 and 38.9 and 26.2	150 and 223 and 453	3695 and 4794 and 6465	505497 and 895713 and 688103 and 1.24E+06 and 1.03E+06	5335.62 and 16297.54 and 4781.15 and 12000.14 and 6924.34	1632050.00 and 894870.00 and 1335810.00 and 1304290.00 and 940933.00	47748.80 and 38144.50 and 144567.64 and 78101.02 and 94661.27
